{"source": "patent US20240122893A1", "about": "(priority 2021, published 2024)", "key": {"SARS-CoV-2 [1]": {"tested_on": "SARS-CoV-2", "settings": "treatment of cells with NRF2 agonists; cited from earlier work"}, "HCoV-OC43 [2]": {"tested_on": "HCoV-OC43", "assay": "microbe, parasite or virus in culture", "format": "cell-based, Human coronavirus OC43"}, "SARS-CoV-2 [3]": {"tested_on": "SARS-CoV-2", "assay": "CPE inhibition assay, SARS-CoV-2 strains in Vero C1008 cells", "format": "cell-based"}, "MRC-5 cells": {"tested_on": "MRC-5 cells", "settings": "human"}, "SARS-CoV-2/USA/WI1/2020 [4]": {"tested_on": "SARS-CoV-2/USA/WI1/2020", "settings": "for protein concentration in bronchoalveolar lavage (BAL), measure of lung injury: 6 days post-infection; for SARS-CoV-2 spike protein distribution in the lungs: vs infected untreated animals"}, "SARS-CoV-2/USA/WI1/2020 [5]": {"tested_on": "SARS-CoV-2/USA/WI1/2020", "experimental": "Flow cytometry: Lungs were minced and incubated at 37° C. in an enzyme cocktail of RPMI containing 2.4 mg/ml collagenase I and 20 μg/ml DNase (Invitrogen), then mashed through a 70-μm nylon cell strainer (BD Falcon). […] For analysis immediately ex vivo, cells were washed once in PBS and immediately stained for viability with Biolegend Live/Dead Zombie NIR Fixable Viability Dye and Fc Block for 10 min at room temperature. Cell surface staining was performed in 100 uL of 20% BD Horizon™ Brilliant Stain Buffer+ PBS with surface stain antibody cocktail for 20 min at room temperature. Cells were fixed and permeabilized with eBioscience™ FoxP3/Transcription Factor Staining kit 1× Fixation/Permeabilization reagent overnight at 4° C. Cells were washed with 1× Permeabilization/Wash buffer. Intracellular staining (ICS) was performed in 100 uL 1× Permeabilization/Wash buffer with ICS antibody cocktail for 45 min at room temperature. Cells were washed once with Permeabilization/Wash buffer then resuspended in Permeabilization/Wash buffer for acquisition by flow. Samples were run on a 3 laser Cytek Aurora spectral flow cytometer. FCS files were analyzed using Flowjo v10 (10.6.2.) software.\nFlow cytometry. Lungs were minced and incubated at 37° C. in an enzyme cocktail of RPMI containing 2.4 mg/mi collagenase I and 20 μg/ml DNase (Invitrogen), then mashed through a 70-μm nylon cell strainer (BD Falcon). […] For analysis immediately ex vivo, cells were washed once in PBS and immediately stained for viability with Biolegend Live/Dead Zombie NIR Fixable Viability Dye and Fc Block for 10 min at room temperature. Cell surface staining was performed in 100 μL of 20% BD Horizon™ Brilliant Stain Buffer+ PBS with surface stain antibody cocktail for 20 min at room temperature. Cells were fixed and permeabilized with eBioscience™ FoxP3/Transcription Factor Staining kit 1× Fixation/Permeabilization reagent overnight at 4° C. Cells were washed with 1× Permeabilization/Wash buffer. Intracellular staining (ICS) was performed in 100 μL 1× Permeabilization/Wash buffer with ICS antibody cocktail for 45 min at room temperature. Cells were washed once with Permeabilization/Wash buffer then resuspended in Permeabilization/Wash buffer for acquisition by flow. […] For the myeloid flow cytometry functional staining, the cells were incubated with protein transport inhibitors for 4 h. Samples were run on a 3 laser Cytek Aurora spectral flow cytometer or a FACSAria II spectral flow cytometer (BD). FCS files were analyzed using Flowjo v10.6.2 software (BD). […] High-dimensional unbiased analysis of cell phenotypes was performed using Flowjo plugins DownSample v3 and UMAP."}, "[6]": {"settings": "cited from earlier work"}, "SARS-CoV-2 [7]": {"tested_on": "SARS-CoV-2", "assay": "organism not typed", "settings": "Caco-2, read-out: IC50, reduction of viral RNA", "experimental": "vRNA determination: Zymo Quick-RNA Viral 96 Kit (Zymo Research) was used to isolate RNA from cell supematants according to the manufacturer's protocol. cDNA synthesis was performed using qScript cDNA Supermix containing randomhexamers and oligo-dT primers following the manufacture's protocol (Quanta Biosciences). Real-time PCR was performed in technical triplicate for each sample using TaqMan Fast Advanced Master Mix (Applied Biosystems) on a StepOne Plus Real Time PCR machine (Applied Biosystems). […] The cycling parameters were as follows: (i) 2 min at 50° C.; (ii) 2 min at 95° C.; and (iii) 45 cycles at 95° C. for 3s and 55° C. for 30 s. Molecular standard curves were generated using serial dilutions of a plasmid containing the complete SARS-CoV-2N gene (Integrated DNA Technologies, Catalog #10006625).\nViral RNA determination. Zymo Quick-RNA Viral 96 Kit (Zymo Research) was used to isolate RNA from cell supematants according to the manufacturer's protocol. cDNA synthesis was performed using qScript cDNA Supermix containing random hexamers and oligo-dT primers following the manufacture's protocol (Quanta Biosciences). Real-time quantitative reverse transcription\nPCR (RT-qPCR) was performed in technical triplicate for each sample using TaqMan Fast Advanced Master Mix (Applied Biosystems) on a StepOne Plus Real Time PCR machine (Applied Biosystems). […]"}, "HCoV-OC43 [8]": {"tested_on": "HCoV-OC43", "assay": "microbe, parasite or virus in culture", "settings": "Betacoronavirus 1, OC43, MRC5, read-out: IC50, median inhibitory concentration"}, "[9]": {"settings": "30 mg/kg daily oral gavage, vs untreated infected controls"}, "[10]": {"settings": "after PMA/ionomycin stimulation"}}, "note": "Structures can show the parent of a compound that is named as a salt. Where two headings read alike, the source gives them in different places.", "data": [{"smiles": "C=C(CC(=O)OCCCCCCCC)C(=O)O", "note": "[4-octyl-itaconate]", "values": [{"measurement": "replication of SARS-CoV-2 in vitro", "setting": "SARS-CoV-2 [1]", "result": "inhibited replication"}]}, {"smiles": "CCC(CC)COC(=O)[C@H](C)N[P@](=O)(OC[C@H]1O[C@@](C#N)(c2ccc3c(N)ncnn23)[C@H](O)[C@@H]1O)Oc1ccccc1", "note": "[RDV, remdesivir, reference compound]", "values": [{"measurement": "IC50", "setting": "HCoV-OC43 [2]; Betacoronavirus 1, OC43, Vero C1008, drug added 1-2 h before virus, read-out: IC50, median inhibitory concentration", "result": 22, "unit": "µM"}, {"measurement": "IC50", "setting": "SARS-CoV-2 [3]; Severe acute respiratory syndrome coronavirus 2, Vero C1008, SARS-CoV-2, FIG. 2E, Vero C1008, drug 1 h before virus, read-out: IC50", "result": 4, "unit": "µM"}, {"measurement": "IC50", "setting": "SARS-CoV-2 [3]; Severe acute respiratory syndrome coronavirus 2, Vero C1008, four strains of SARS-CoV-2 (Example 1), read-out: IC50", "result": "4 to 9", "unit": "µM"}, {"measurement": "TD50, median cytotoxic dose", "setting": "Vero C1008 cells; Vero C1008, drug added 1-2 h before virus (HCoV-OC43 assay)", "result": 142, "unit": "µM"}]}, {"smiles": "C[S+]([O-])CCCCN=C=S", "note": "(centres unmarked) [SFN, sulforaphane]", "values": [{"measurement": "IC50", "setting": "HCoV-OC43 [2]; Betacoronavirus 1, OC43, Vero C1008, 24 h, Vero C1008, established infection, drug added 24 h after virus, read-out: IC50, median inhibitory concentration", "result": 18, "unit": "µM"}, {"measurement": "IC50", "setting": "HCoV-OC43 [2]; Betacoronavirus 1, OC43, Vero C1008, Vero C1008, drug 24 h before virus, drug washed out and then virus added, read-out: IC50, median inhibitory concentration", "result": 21, "unit": "µM"}, {"measurement": "IC50", "setting": "HCoV-OC43 [2]; Betacoronavirus 1, OC43, Vero C1008, read-out: IC50, median inhibitory concentration, Vero C1008, drug added 1-2 h before virus", "result": 10, "unit": "µM"}, {"measurement": "IC50", "setting": "SARS-CoV-2 [3]; 614G+ clinical strain USA/DCHP-7/2020 (DC)", "result": 29, "unit": "µM"}, {"measurement": "IC50", "setting": "SARS-CoV-2 [3]; 614G+ clinical strain USA/MDHP-20/2020 (MD)", "result": 28, "unit": "µM"}, {"measurement": "IC50", "setting": "SARS-CoV-2 [3]; Severe acute respiratory syndrome coronavirus 2, Vero C1008, 614G+ clinical strain USA/DCHP-7/2020 (DC)", "result": 51, "unit": "µM"}, {"measurement": "IC50", "setting": "SARS-CoV-2 [3]; Severe acute respiratory syndrome coronavirus 2, Vero C1008, 614G+ clinical strain USA/MDHP-20/2020 (MD)", "result": 48, "unit": "µM"}, {"measurement": "IC50", "setting": "SARS-CoV-2 [3]; Severe acute respiratory syndrome coronavirus 2, Vero C1008, 24 h, SARS-CoV-2-Wuhan-Hu-1, established infection, drug added 24 h after virus, read-out: IC50, median inhibitory concentration", "result": 13, "unit": "µM"}, {"measurement": "IC50", "setting": "SARS-CoV-2 [3]; Severe acute respiratory syndrome coronavirus 2, Vero C1008, both reference strains, Wuhan-Hu-1 and USA-WA1/2020 (Example 1)", "result": "15 to 17", "unit": "µM"}, {"measurement": "IC50", "setting": "SARS-CoV-2 [3]; Severe acute respiratory syndrome coronavirus 2, Vero C1008, read-out: IC50, median inhibitory concentration, SARS-CoV-2-Wuhan-Hu-1, Vero C1008, drug 1-2 h before virus", "result": 12, "unit": "µM"}, {"measurement": "IC50", "setting": "SARS-CoV-2 [3]; Severe acute respiratory syndrome coronavirus 2, Vero C1008, reference strain USA-WA1/2020, drug 1 h before virus (Example 2)", "result": 31, "unit": "µM"}, {"measurement": "TD50, median cytotoxic dose, range over assays", "setting": "Vero C1008 cells; African green monkey, human", "result": "73 to 89", "unit": "µM"}, {"measurement": "TD50, median cytotoxic dose", "setting": "MRC-5 cells", "result": 83, "unit": "µM"}, {"measurement": "bodyweight loss, less than infected untreated controls", "setting": "SARS-CoV-2/USA/WI1/2020 [4]; 30 mg/kg daily oral gavage from one day before inoculation, day 6 post inoculation", "result": 7.5, "unit": "%"}, {"measurement": "protein concentration in bronchoalveolar lavage (BAL), measure of lung injury", "setting": "SARS-CoV-2/USA/WI1/2020 [4]; [9]", "result": "significantly lower"}, {"measurement": "protein concentration in bronchoalveolar lavage (BAL), measure of lung injury", "setting": "SARS-CoV-2/USA/WI1/2020 [4]; 30 mg/kg daily oral gavage, vs untreated infected controls, listed as sulforaphane", "result": "lower"}, {"measurement": "reduction in lung viral load, total SARS-CoV-2 N protein copies, not normalized to Pol2Ra", "setting": "SARS-CoV-2/USA/WI1/2020 [4]; 30 mg/kg daily oral gavage, P=0.1308", "result": 1.46, "unit": "log"}, {"measurement": "weight loss compared to controls", "setting": "SARS-CoV-2/USA/WI1/2020 [4]; 30 mg/kg daily oral gavage, day 6 post inoculation", "result": "lost significantly less weight"}, {"measurement": "reduction in lung viral load, SARS-CoV-2 N protein copies normalized to Pol2Ra", "setting": "SARS-CoV-2/USA/WI1/2020 [4]; 30 mg/kg daily oral gavage, vs infected untreated controls", "result": 1.5, "unit": "log"}, {"measurement": "viral burden in BAL / alveolar fluid (qPCR)", "setting": "SARS-CoV-2/USA/WI1/2020 [4]; [9]", "result": "significantly lower"}, {"measurement": "histopathology score of lung inflammation", "setting": "SARS-CoV-2/USA/WI1/2020 [4]; 30 mg/kg daily, untreated controls 6/16", "result": "1/16"}, {"measurement": "lung viral load, treated vs controls (Example 1)", "setting": "SARS-CoV-2/USA/WI1/2020 [4]; daily oral gavage from one day before inoculation", "result": "no statistically significant differences"}, {"measurement": "reduction of viral replication in the lungs", "setting": "SARS-CoV-2/USA/WI1/2020 [4]; prophylactic SFN treatment", "result": "1.5 orders of magnitude"}, {"measurement": "SARS-CoV-2 spike protein distribution in the lungs", "setting": "SARS-CoV-2/USA/WI1/2020 [4]", "result": "focal distribution"}, {"measurement": "SARS-CoV-2 spike protein distribution in the lungs", "setting": "SARS-CoV-2/USA/WI1/2020 [4]; listed as sulforaphane", "result": "smaller area"}, {"measurement": "pulmonary pathology (H&E lung sections)", "setting": "SARS-CoV-2/USA/WI1/2020 [4]; vs infected untreated mice", "result": "lower degree of pulmonary pathology"}, {"measurement": "B cells in the spleen and Ly6G+ neutrophils in the lung", "setting": "SARS-CoV-2/USA/WI1/2020 [5]; Example 1", "result": "significantly higher expansion"}, {"measurement": "CCR2 expression on alveolar macrophages", "setting": "SARS-CoV-2/USA/WI1/2020 [5]; Example 1", "result": "reduced"}, {"measurement": "CD86 on lung-resident macrophages", "setting": "SARS-CoV-2/USA/WI1/2020 [5]; Example 1", "result": "increased"}, {"measurement": "IL-10 and TGFβ produced by macrophages", "setting": "SARS-CoV-2/USA/WI1/2020 [5]; Example 1", "result": "increased"}, {"measurement": "Ki67 and MHCII on CD8 T cells immediately ex vivo", "setting": "SARS-CoV-2/USA/WI1/2020 [5]; Example 1", "result": "upregulation"}, {"measurement": "PD-L1 expression on macrophages", "setting": "SARS-CoV-2/USA/WI1/2020 [5]; Example 1", "result": "lower levels"}, {"measurement": "frequency of B cells, cytotoxic NK cells and CD8 T cells", "setting": "SARS-CoV-2/USA/WI1/2020 [5]; Example 1", "result": "increased frequency"}, {"measurement": "expression of activation markers CD80, CD86, PD-L1, MHC-II on lung alveolar and interstitial macrophages", "setting": "SARS-CoV-2/USA/WI1/2020 [5]; Example 2", "result": "lower expression"}, {"measurement": "PD1, MHC-II and Ki-67 on lung CD8+ and CD4+ T cells, directly ex vivo", "setting": "SARS-CoV-2/USA/WI1/2020 [5]; Example 2, P<0.05", "result": "significantly decreased"}, {"measurement": "frequencies of lung alveolar and interstitial macrophages producing IL-10, IL-1β, TNF-α, TGF-β", "setting": "SARS-CoV-2/USA/WI1/2020 [5]; Example 2, P<0.05", "result": "significantly lower frequencies"}, {"measurement": "infection-induced increase of IL-1β in alveolar macrophages", "setting": "SARS-CoV-2/USA/WI1/2020 [5]; P<0.0001", "result": "abrogated"}, {"measurement": "CPT1a+VDAC+ myeloid cells in lung", "setting": "SARS-CoV-2/USA/WI1/2020 [5]; P=0.01", "result": "significantly decreased"}, {"measurement": "percentage of monocytes and CD11c+ dendritic cells out of total CD45+ immune cells in the lungs", "setting": "SARS-CoV-2/USA/WI1/2020 [5]; P=0.01", "result": "significantly decreased"}, {"measurement": "IFN-γ and IL-10 from lung CD4+ T cells", "setting": "SARS-CoV-2/USA/WI1/2020 [5]; [10]", "result": "lower levels"}, {"measurement": "frequency of IL-4 and IL-17 in CD4+ T cells", "setting": "SARS-CoV-2/USA/WI1/2020 [5]; [10]", "result": "not significantly altered"}, {"measurement": "TNF-α in alveolar macrophages and IFN-γ in T cells", "setting": "SARS-CoV-2/USA/WI1/2020 [5]; mouse, in vivo", "result": "reduction"}, {"measurement": "recruitment of myeloid cells (monocytes, dendritic cells) into the lungs", "setting": "SARS-CoV-2/USA/WI1/2020 [5]; vs infected untreated mice", "result": "significantly reduced"}, {"measurement": "tolerability", "setting": "[6]; SFN-rich broccoli sprouts corresponding to 50 to 400 μmol SFN daily", "result": "well tolerated without clinically significant adverse effects"}, {"measurement": "elimination from plasma", "setting": "[6]; in vivo", "result": "rapidly eliminated from plasma"}, {"measurement": "IC50", "setting": "SARS-CoV-2 [7]", "result": 2.4, "unit": "µM"}, {"measurement": "IC50", "setting": "HCoV-OC43 [8]", "result": 18, "unit": "µM"}]}, {"smiles": "COC(=O)/C=C/C(=O)OC", "note": "[dimethyl fumarate]", "values": [{"measurement": "replication of SARS-CoV-2 in vitro", "setting": "SARS-CoV-2 [1]", "result": "inhibited replication"}]}]}
